Data on 2 compounds can be found in PMC10992376, “High coenzyme affinity chimeric amine dehydrogenase based on domain engineering” (Bioresources and Bioprocessing, 2022).

In the experiment the test system is T1, cFLF-AmDH.
T1 construct: gene pdh; KS/NL parents; C-terminal His6; E. coli BL21(DE3)
Kind of experiment: NADH oxidation at […] nm, Michaelis-Menten fit. It counts as biochemical, Pseudobacillus badius. To be noted: 2 M NH4Cl/NH4OH, optimum pH and temperature (table note; Methods: 100 mM NH4Cl/NH4OH, pH 8.5, 30 °C).

Read-outs that look alike come from different tables or passages of the source.

In the case of `NC(=O)C1=CN([C@@H]2O[C@H](COP(=O)(O)OP(=O)(O)OC[C@H]3O[C@@H](n4cnc5c(N)ncnc54)[C@H](O)[C@@H]3O)[C@@H](O)[C@H]2O)C=CC1` [NADH], where the note is “read-out: NADH / Km, co-substrate pFPA”, the Km worked out at 0.49 ± 0.02 mM.
Turning to `CC(=O)Cc1ccc(F)cc1` [p-FPA], the Km (co-substrate NADH, ammonium, read-out: pFPA / Km) amounted to 21.8 ± 2.67 mM.
